Test results from ChEMBL document CHEMBL1154348, “Arginine-pyrimidine conjugates with therapeutic and prophylactic activity in lethal bacterial infections” (Bioorg Med Chem Lett, 2009).
Calls of active or inactive are those of the source. No cut-off for these calls is given here.

Legend:
[1] = Therapeutic efficacy against Escherichia coli infected lethal mouse sepsis model assessed as survival at 30 mg/kg, ip administered 0.5 hrs and 4 hrs post infection; assay type: organism-based; design: dose 30 mg/kg, route intraperitoneal; details: in vivo
[2] = Therapeutic efficacy against Staphylococcus aureus infected lethal mouse sepsis model assessed as survival at 30 mg/kg, ip administered 0.5 hrs and 4 hrs post infection; assay type: organism-based; design: dose 30 mg/kg, route intraperitoneal; details: in vivo
[3] = tested on: Mus musculus; assay: Acute toxicity in mouse up to 450 mg/kg, ip after 5 days; assay type: organism-based; design: dose 450 mg/kg, route intraperitoneal; details: in vivo, 120 h
[4] = tested on: Staphylococcus aureus; assay: Antibacterial activity against Staphylococcus aureus; assay type: functional
[5] = tested on: Escherichia coli; assay: Prophylactic efficacy against Escherichia coli infected lethal mouse sepsis model assessed as survival at 50 mg/kg, ip administered 2 hrs before infection; assay type: functional; details: route intraperitoneal
[6] = Cmax in mouse at 100 mg/kg, ip after 30 mins; assay type: ADME, organism-based; design: dose 100 mg/kg, route intraperitoneal; details: in vivo
[7] = tested on: Escherichia coli; assay: Prophylactic efficacy against Escherichia coli infected lethal mouse sepsis model assessed as survival at 50 mg/kg, ip administered 0.5 hrs before infection; assay type: functional; details: route intraperitoneal
[8] = tested on: Escherichia coli; assay: Antibacterial activity against Escherichia coli infected lethal mouse sepsis model assessed as reduction in bacterial load in mouse blood at 50 mg/kg, ip administered as single dose 0.5 hrs post infection measured after 5 hrs; assay type: functional; details: route intraperitoneal
[9] = tested on: Pseudomonas aeruginosa; assay: Antibacterial activity against Pseudomonas aeruginosa infected in cyclophosphamide-treated immunocompromized mouse assessed as inhibition of wound infection; assay type: functional, organism-based
[10] = Half life in mouse at 100 mg/kg, ip after 30 mins; assay type: ADME, organism-based; design: dose 100 mg/kg, route intraperitoneal; details: in vivo
[11] = tested on: Escherichia coli; assay: Antibacterial activity against Escherichia coli; assay type: functional
[12] = tested on: Mus musculus; assay: Subchronic toxicity in mouse up to 450 mg/kg, ip after 5 days; assay type: organism-based; design: dose 450 mg/kg, route intraperitoneal; details: in vivo, 120 h
[13] = tested on: Escherichia coli; assay: Prophylactic efficacy against Escherichia coli infected lethal mouse sepsis model assessed as survival at 50 mg/kg, ip administered 1 hr before infection; assay type: functional; details: route intraperitoneal
[14] = tested on: Plasma; assay: Stability in mouse plasma after 3 hrs; assay type: ADME, cell-free
[15] = tested on: Streptococcus pyogenes; assay: Antibacterial activity against Streptococcus pyogenes infected in cyclophosphamide-treated immunocompromized mouse assessed as inhibition of muscle infection; assay type: functional, organism-based; details: Muscle tissue
[16] = tested on: Escherichia coli; assay: Antibacterial activity against Escherichia coli infected lethal mouse sepsis model assessed as reduction in bacterial load in mouse blood at 50 mg/kg, ip administered 0.5 hrs and 4 hrs post infection measured after 5 hrs; assay type: functional; details: route intraperitoneal
[17] = tested on: Escherichia coli; assay: Prophylactic efficacy against Escherichia coli infected lethal mouse sepsis model assessed as survival at 50 mg/kg, ip administered 3 hrs before infection; assay type: functional; details: route intraperitoneal

SMILES	Efficacy [1]	Efficacy [2]	Activity [3]	MIC [4]	Efficacy [5]	Cmax [6]	Efficacy [7]	CFU [8]	Activity [9]	half-life [10]	MIC [11]	Activity [12]	Efficacy [13]	Stability [14]	Activity [15]	CFU [16]	Efficacy [17]
CN(CCCNC(=O)[C@@H](N)CCCNC(=N)N)c1ncccn1	40%	40%	–	–	–	–	–	–	–	–	–	–	–	–	–	–	–
O=C(O)c1cn(C2CC2)c2cc(N3CCNCC3)c(F)cc2c1=O [CIPROFLOXACIN]	60%	40%	–	–	–	–	–	–	–	–	–	–	–	–	–	–	–
CN(CCCN(C)c1ncccn1)C(=O)[C@@H](N)CCCNC(=N)N	80%	60%	Non-toxic	> 250 µg/mL	60%	56 µg/mL	80%	2.7 ×10³ /ml	inactive	1 h	> 250 µg/mL	Non-toxic	80%	Stable	inactive	3.7 ×10² /ml	40%
